Key:
[1] = system: barnyardgrass (Echinochloa crus-galli); test: Test C flooded paddy test; format: in vivo; conditions: Flood
In short: (§1)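 Response scores reflect visual evaluation after 12 to 14 days in the greenhouse, with 0 for no effect and 100 for complete control relative to untreated plants. Treatment was made at the 2-leaf stage in a flooded paddy setting, and a dash denotes no test result.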

[2] = system: duck salad (Heteranthera limosa); test: Test C flooded paddy test; format: in vivo; conditions: Flood, scale 0 to 100
In short: as §1

rice (Oryza sativa) = test: Test C flooded paddy test; format: in vivo; conditions: Flood, scale 0 to 100
In short: as §1

[3] = system: umbrella sedge (Cyperus difformis); test: Test C flooded paddy test; format: in vivo; conditions: Flood, scale 0 to 100
In short: as §1

[4] = system: Italian ryegrass (Lolium multiflorum); test: Test C postemergence; format: in vivo
In short: (§2)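 Visual injury ratings, 0 (no effect) to 100 (complete control), made 12 to 14 days after treatment by comparison with untreated controls. Greenhouse plants received test chemical in a surfactant-containing non-phytotoxic solvent, either preemergence on planted seeds or postemergence at the 1- to 4-leaf stage.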

[5] = system: blackgrass (Alopecurus myosuroides); test: Test C postemergence; format: in vivo
In short: as §2

[6] = system: canarygrass (Phalaris minor); test: Test C postemergence; format: in vivo
In short: as §2

[7] = system: downy brome (Bromus tectorum); test: Test C postemergence; format: in vivo
In short: as §2

[8] = system: green foxtail (Setaria viridis); test: Test C postemergence; format: in vivo
In short: as §2

[9] = system: wheat (Triticum aestivum); test: Test C postemergence; format: in vivo
In short: as §2

wild oat (Avena fatua) = test: Test C postemergence; format: in vivo
In short: as §2

[10] = system: windgrass (Apera spica-venti); test: Test C postemergence; format: in vivo
In short: as §2

[11] = system: winter barley (Hordeum vulgare); test: Test C postemergence; format: in vivo
In short: as §2

[12] = system: late watergrass (Echinochloa oryzicola); test: Test E flooded paddy water application; format: in vivo; conditions: Flood, 21 days, scale 0 to 100 (0 no effect, 100 complete control)
In short: (§3)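 Weeds sown in sterilized Tama silt loam (2.6% organic matter), greenhouse 29.5/26.7° C, 16-h photoperiod; at 2.0–2.5-leaf stage pots flooded to 3 cm and compound added to paddy water. Visual rating vs untreated controls after 21 days, 0 (no effect) to 100 (complete control).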

[13] = system: smallflower umbrella sedge (Cyperus difformis); test: Test E flooded paddy water application; format: in vivo; conditions: Flood, 21 days, scale 0 to 100 (0 no effect, 100 complete control)
In short: as §3

What does the source list for Nc1nc(C2CC2)nc(C(=O)OCc2ccccc2)c1Br [Compound 22, phenylmethyl 6-amino-5-bromo-2-cyclopropyl-4-pyrimidinecarboxylate]?
Plant response rating, Barnyardgrass ([1]; 62 g ai/ha, scale 0 to 100): 0; Plant response rating, Barnyardgrass ([1]; 125 g ai/ha, scale 0 to 100): 0; Plant response rating, Barnyardgrass ([1]; 250 g ai/ha, scale 0 to 100): 40; Plant response rating, Barnyardgrass ([1]; 500 g ai/ha, scale 0 to 100 (0 no effect, 100 complete control)): 70; Plant response rating, Ducksalad ([2]; 62 g ai/ha): 30; Plant response rating, Ducksalad ([2]; 125 g ai/ha): 60; Plant response rating, Ducksalad ([2]; 250 g ai/ha): 90; Plant response rating, Ducksalad ([2]; 500 g ai/ha): 95; Plant response rating, Rice (rice (Oryza sativa); 62 g ai/ha): 20; Plant response rating, Rice (rice (Oryza sativa); 125 g ai/ha): 20; Plant response rating, Rice (rice (Oryza sativa); 250 g ai/ha): 40; Plant response rating, Rice (rice (Oryza sativa); 500 g ai/ha): 60; Plant response rating, Sedge, Umbrella ([3]; 62 g ai/ha): 0; Plant response rating, Sedge, Umbrella ([3]; 125 g ai/ha): 30; Plant response rating, Sedge, Umbrella ([3]; 250 g ai/ha): 75; Plant response rating, Sedge, Umbrella ([3]; 500 g ai/ha): 95; melting point: 129 to 131 °C

Which “Plant response rating (scale of 0 to 100), Ryegrass, Italian” value (from here on “Plant response rating … Italian”) ([4]; 16 g ai/ha) does the source give for Nc1nc(-c2ccc(Cl)cc2)nc(C(=O)O)c1Cl [Compound 65, 6-amino-5-chloro-2-(4-chlorophenyl)-4-pyrimidinecarboxylic acid] here?
The value was 10.

And the “Plant response rating … Italian” value ([4]; 31 g ai/ha)?
Its value is 50.

What about the “Plant response rating … Italian” value ([4]; 62 g ai/ha) of the same compound?
Its value is 55.

What about the pest or weed control at 125 g/ha ([4]; Lolium multiflorum, post-emergence, 125 g ai/ha, scale 0 to 100 (0 no effect, 100 complete control), read-out: Ryegrass, Italian plant response rating) of the same compound?
The pest or weed control at 125 g/ha was 60%.

And the “Plant response rating (scale of 0 to 100), Blackgrass” value (from here on “Plant response rating … Blackgrass”) ([5]; 16 g ai/ha)?
The value was 50.

What about the “Plant response rating … Blackgrass” value ([5]; 31 g ai/ha) of the same compound?
Its value is 60.

What about the “Plant response rating … Blackgrass” value ([5]; 62 g ai/ha) of the same compound?
The value was 65.

What about the pest or weed control at 125 g/ha ([5]; Alopecurus myosuroides, post-emergence, 125 g ai/ha, scale 0 to 100 (0 no effect, 100 complete control), read-out: Blackgrass plant response rating) of the same compound?
Its pest or weed control at 125 g/ha is 65%.

What about the “Plant response rating (scale of 0 to 100), Canarygrass” value (“Plant response rating … Canarygrass” for short) ([6]; 16 g ai/ha) of the same compound?
Its value is 30.

And the “Plant response rating … Canarygrass” value ([6]; 31 g ai/ha)?
The value was 30.

And the “Plant response rating … Canarygrass” value ([6]; 62 g ai/ha)?
The value was 35.

And the pest or weed control at 125 g/ha ([6]; Phalaris minor, post-emergence, 125 g ai/ha, scale 0 to 100 (0 no effect, 100 complete control), read-out: Canarygrass plant response rating)?
Its pest or weed control at 125 g/ha is 45%.

What about the “Plant response rating (scale of 0 to 100), Bromegrass, Downy” value (from here on “Plant response rating … Downy”) ([7]; 16 g ai/ha) of the same compound?
Its value is 40.

And the “Plant response rating … Downy” value ([7]; 31 g ai/ha)?
The value was 50.

And the “Plant response rating … Downy” value ([7]; 62 g ai/ha)?
The value was 50.

What about the pest or weed control at 125 g/ha ([7]; Bromus tectorum, post-emergence, 125 g ai/ha, scale 0 to 100 (0 no effect, 100 complete control), read-out: Bromegrass, Downy plant response rating) of the same compound?
Its pest or weed control at 125 g/ha is 55%.

And the “Plant response rating (scale of 0 to 100), Foxtail, Green” value (“Plant response rating … Green” below) ([8]; 16 g ai/ha)?
The value was 50.

What about the “Plant response rating … Green” value ([8]; 31 g ai/ha) of the same compound?
The value was 55.

And the “Plant response rating … Green” value ([8]; 62 g ai/ha)?
The value was 60.

And the pest or weed control at 125 g/ha ([8]; Setaria viridis, post-emergence, 125 g ai/ha, scale 0 to 100 (0 no effect, 100 complete control), read-out: Foxtail, Green plant response rating)?
Its pest or weed control at 125 g/ha is 70%.

What about the “Plant response rating (scale of 0 to 100), Wheat” value (“Plant response rating … Wheat” for short) ([9]; 16 g ai/ha) of the same compound?
Its value is 40.

What about the “Plant response rating … Wheat” value ([9]; 31 g ai/ha) of the same compound?
The value was 40.

What about the “Plant response rating … Wheat” value ([9]; 62 g ai/ha) of the same compound?
Its value is 45.

And the plant injury at 125 g/ha ([9]; Triticum aestivum, post-emergence, 125 g ai/ha, scale 0 to 100 (0 no effect, 100 complete control), read-out: Wheat plant response rating)?
Its plant injury at 125 g/ha is 45%.

And the “Plant response rating (scale of 0 to 100), Oat, Wild” value (“Plant response rating … Wild” below) (wild oat (Avena fatua); 16 g ai/ha)?
The value was 5.

And the “Plant response rating … Wild” value (wild oat (Avena fatua); 31 g ai/ha)?
Its value is 15.

What about the “Plant response rating … Wild” value (wild oat (Avena fatua); 62 g ai/ha) of the same compound?
Its value is 20.

And the pest or weed control at 125 g/ha (wild oat (Avena fatua); Avena fatua, post-emergence, 125 g ai/ha, scale 0 to 100 (0 no effect, 100 complete control), read-out: Oat, Wild plant response rating)?
The pest or weed control at 125 g/ha was 40%.

And the “Plant response rating (scale of 0 to 100), Windgrass” value (“Plant response rating … Windgrass” below) ([10]; 16 g ai/ha)?
The value was 50.

And the “Plant response rating … Windgrass” value ([10]; 31 g ai/ha)?
The value was 60.

And the “Plant response rating … Windgrass” value ([10]; 62 g ai/ha)?
The value was 70.

What about the pest or weed control at 125 g/ha ([10]; Apera spica-venti, post-emergence, 125 g ai/ha, scale 0 to 100 (0 no effect, 100 complete control), read-out: Windgrass plant response rating) of the same compound?
Its pest or weed control at 125 g/ha is 70%.

And the “Plant response rating (scale of 0 to 100), Barley” value ([11]; 16 g ai/ha)?
The value was 40.

And the “Plant response rating (scale of 0 to 100), Barley” value ([11]; 31 g ai/ha)?
Its value is 40.

And the plant injury at 62 g/ha ([11]; Hordeum vulgare, post-emergence, 62 g ai/ha, scale 0 to 100 (0 no effect, 100 complete control), read-out: Barley plant response rating)?
The plant injury at 62 g/ha was 50%.

And the plant injury at 125 g/ha ([11]; Hordeum vulgare, post-emergence, 125 g ai/ha, scale 0 to 100 (0 no effect, 100 complete control), read-out: Barley plant response rating)?
The plant injury at 125 g/ha was 50%.

And the “Watergrass, Late plant response rating” value ([12]; 32 g ai/ha)?
The value was 0.

What about the “Watergrass, Late plant response rating” value ([12]; 64 g ai/ha) of the same compound?
The value was 0.

What about the “Watergrass, Late plant response rating” value ([12]; 125 g ai/ha) of the same compound?
Its value is 0.

And the “Watergrass, Late plant response rating” value ([12]; 250 g ai/ha)?
The value was 25.

What about the “Plant response rating, Watergrass, Late” value ([12]; 16 g ai/ha) of the same compound?
The value was 0.

And the “Sedge, Umbrella plant response rating” value ([13]; 32 g ai/ha)?
The value was 80.

And the “Sedge, Umbrella plant response rating” value ([13]; 64 g ai/ha)?
The value was 85.

What about the “Sedge, Umbrella plant response rating” value ([13]; 125 g ai/ha) of the same compound?
The value was 100.

What about the “Sedge, Umbrella plant response rating” value ([13]; 250 g ai/ha) of the same compound?
Its value is 100.

And the “Plant response rating, Sedge, Umbrella” value ([13]; 16 g ai/ha)?
The value was 20.

And the melting point?
The melting point was 158 to 160 °C.

From US8802597B2, “Herbicidal pyrimidines” (E I du Pont de Nemours and Company, priority 2003, dated 2014)
